{"source": "paper PMC3574212", "about": "(Journal of medicinal chemistry, 2013)", "key": {"type II PKA holoenzyme": {"system": "type II PKA holoenzyme", "assay": "Counter screening assay, type II PKA holoenzyme kinase activity", "format": "biochemical", "conditions": "25 µM compound, 0.1 mM cAMP"}, "type I PKA holoenzyme": {"system": "type I PKA holoenzyme", "assay": "Counter screening assay, type I PKA holoenzyme kinase activity", "format": "biochemical", "conditions": "25 µM compound, 0.1 mM cAMP"}, "EPAC1 [1]": {"biological_target": "T1, EPAC1 (Homo sapiens, UniProt O95398)", "T1 sequence (O95398 1-923)": "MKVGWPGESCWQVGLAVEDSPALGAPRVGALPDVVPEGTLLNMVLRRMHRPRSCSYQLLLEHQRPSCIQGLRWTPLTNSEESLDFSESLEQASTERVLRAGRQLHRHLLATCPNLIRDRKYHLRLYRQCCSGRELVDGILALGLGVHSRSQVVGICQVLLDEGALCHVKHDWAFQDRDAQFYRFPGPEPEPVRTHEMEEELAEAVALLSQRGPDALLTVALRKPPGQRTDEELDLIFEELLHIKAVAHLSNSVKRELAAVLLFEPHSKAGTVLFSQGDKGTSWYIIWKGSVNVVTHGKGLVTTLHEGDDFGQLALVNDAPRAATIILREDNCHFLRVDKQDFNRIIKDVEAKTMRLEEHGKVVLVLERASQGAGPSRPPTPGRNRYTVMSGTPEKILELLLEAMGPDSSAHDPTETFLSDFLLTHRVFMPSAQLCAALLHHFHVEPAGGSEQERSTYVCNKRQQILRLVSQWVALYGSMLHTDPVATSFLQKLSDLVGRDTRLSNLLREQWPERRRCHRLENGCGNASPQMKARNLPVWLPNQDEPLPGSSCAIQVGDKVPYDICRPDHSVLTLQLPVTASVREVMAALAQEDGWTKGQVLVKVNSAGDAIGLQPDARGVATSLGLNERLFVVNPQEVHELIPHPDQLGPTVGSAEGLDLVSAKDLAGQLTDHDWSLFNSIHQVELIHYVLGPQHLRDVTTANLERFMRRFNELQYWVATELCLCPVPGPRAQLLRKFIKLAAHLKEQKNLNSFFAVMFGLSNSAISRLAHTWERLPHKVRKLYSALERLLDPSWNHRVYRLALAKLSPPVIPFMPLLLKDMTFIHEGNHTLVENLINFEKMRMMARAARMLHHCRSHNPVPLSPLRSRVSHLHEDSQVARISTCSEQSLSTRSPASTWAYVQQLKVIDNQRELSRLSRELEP", "assay": "cAMP-mediated EPAC1 GEF activity", "format": "biochemical", "conditions": "25 µM compound in the presence of 25 µM cAMP"}, "EPAC2 [2]": {"biological_target": "T2, EPAC2 (Mus musculus, UniProt Q9EQZ6)", "T2 sequence (Q9EQZ6 1-1011)": "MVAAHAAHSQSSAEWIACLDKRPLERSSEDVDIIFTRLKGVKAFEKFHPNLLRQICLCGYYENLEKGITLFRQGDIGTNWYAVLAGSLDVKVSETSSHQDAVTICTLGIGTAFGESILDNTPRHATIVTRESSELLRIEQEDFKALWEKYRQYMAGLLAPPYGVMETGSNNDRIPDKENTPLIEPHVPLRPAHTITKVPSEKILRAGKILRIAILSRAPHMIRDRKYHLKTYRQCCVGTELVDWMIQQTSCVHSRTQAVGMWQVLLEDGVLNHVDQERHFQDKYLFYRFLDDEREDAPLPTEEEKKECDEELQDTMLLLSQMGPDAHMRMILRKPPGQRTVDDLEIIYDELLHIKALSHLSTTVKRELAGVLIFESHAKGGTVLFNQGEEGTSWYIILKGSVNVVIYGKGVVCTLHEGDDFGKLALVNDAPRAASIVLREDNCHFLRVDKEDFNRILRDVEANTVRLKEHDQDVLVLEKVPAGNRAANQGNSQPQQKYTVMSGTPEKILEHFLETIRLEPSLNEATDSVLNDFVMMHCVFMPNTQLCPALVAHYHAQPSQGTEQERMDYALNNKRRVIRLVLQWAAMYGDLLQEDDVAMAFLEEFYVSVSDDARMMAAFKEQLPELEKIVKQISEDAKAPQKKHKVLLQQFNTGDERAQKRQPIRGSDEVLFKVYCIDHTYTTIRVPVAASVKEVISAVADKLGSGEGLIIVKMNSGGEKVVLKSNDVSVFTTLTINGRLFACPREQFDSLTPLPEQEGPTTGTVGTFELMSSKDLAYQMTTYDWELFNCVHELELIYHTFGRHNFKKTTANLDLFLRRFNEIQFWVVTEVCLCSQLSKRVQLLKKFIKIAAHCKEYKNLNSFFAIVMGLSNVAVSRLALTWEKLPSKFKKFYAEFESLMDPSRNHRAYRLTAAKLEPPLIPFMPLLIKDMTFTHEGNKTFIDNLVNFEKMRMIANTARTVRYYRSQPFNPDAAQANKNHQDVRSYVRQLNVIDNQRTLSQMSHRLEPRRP", "assay": "cAMP-mediated EPAC2 GEF activity", "format": "biochemical", "conditions": "25 µM compound in the presence of 25 µM cAMP"}, "EPAC1 [3]": {"biological_target": "T1, EPAC1", "conditions": "cAMP-mediated EPAC1 GEF activity; ref 18b; cited from earlier work"}, "EPAC2 [4]": {"biological_target": "T2, EPAC2", "assay": "8-NBD-cAMP competition binding assay", "conditions": "for Relative Potency (RA): RA = IC50, cAMP/ IC50, compound"}, "[5]": {"system": "HEK293 cells stably expressing the PKA sensor AKAR3", "assay": "FRET-based live-cell assay for PKA", "conditions": "10 µM 20i, 10 µM 8-Br-cAMP-AM"}, "HEK293/EPAC1-FL": {"biological_target": "T3, HEK293/EPAC1-FL (Homo sapiens, UniProt O95398)", "T3 sequence (O95398 1-923)": "T1 sequence (O95398 1-923)", "assay": "FRET-based live-cell assay for EPAC1 activation", "conditions": "10 µM 20i, 10 µM 007-AM"}, "HEK293/EPAC2-FL cells": {"biological_target": "HEK293/EPAC2-FL cells (Homo sapiens, UniProt Q8WZA2)", "sequence (Q8WZA2 whole entry)": "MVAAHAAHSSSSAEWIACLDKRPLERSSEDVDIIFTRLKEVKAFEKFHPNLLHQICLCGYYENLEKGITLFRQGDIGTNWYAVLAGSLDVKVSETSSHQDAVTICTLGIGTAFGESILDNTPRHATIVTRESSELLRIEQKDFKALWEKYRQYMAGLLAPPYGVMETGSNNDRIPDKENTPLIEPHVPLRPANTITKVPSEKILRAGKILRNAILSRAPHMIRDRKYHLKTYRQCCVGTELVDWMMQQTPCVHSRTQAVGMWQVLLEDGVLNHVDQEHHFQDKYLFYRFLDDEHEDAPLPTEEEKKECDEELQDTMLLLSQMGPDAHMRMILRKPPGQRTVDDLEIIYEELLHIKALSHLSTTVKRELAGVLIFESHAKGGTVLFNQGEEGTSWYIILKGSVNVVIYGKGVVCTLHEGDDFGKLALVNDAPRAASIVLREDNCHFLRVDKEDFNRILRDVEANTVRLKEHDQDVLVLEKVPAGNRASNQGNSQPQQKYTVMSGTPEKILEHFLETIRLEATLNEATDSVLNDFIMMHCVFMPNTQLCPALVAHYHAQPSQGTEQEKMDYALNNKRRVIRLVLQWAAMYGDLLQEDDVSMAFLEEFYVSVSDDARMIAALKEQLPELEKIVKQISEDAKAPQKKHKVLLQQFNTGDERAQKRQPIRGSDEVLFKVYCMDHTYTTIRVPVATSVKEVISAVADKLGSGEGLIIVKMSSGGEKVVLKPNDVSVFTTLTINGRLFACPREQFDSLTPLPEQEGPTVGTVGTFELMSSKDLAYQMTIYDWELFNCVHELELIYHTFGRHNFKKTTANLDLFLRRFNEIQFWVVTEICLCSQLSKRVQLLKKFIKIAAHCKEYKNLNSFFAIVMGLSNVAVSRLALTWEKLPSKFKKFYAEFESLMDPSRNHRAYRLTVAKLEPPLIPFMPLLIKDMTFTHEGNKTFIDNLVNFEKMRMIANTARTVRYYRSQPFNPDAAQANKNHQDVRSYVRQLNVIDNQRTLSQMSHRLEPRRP", "assay": "FRET-based live-cell assay for EPAC2 activation", "conditions": "10 µM 20i pretreatment, 10 µM 007-AM"}}, "note": "“Also recorded” adds a separate entry of the source."}
{"compound": "Cc1ccc(S(=O)(=O)c2c(C)cc(C)cc2C)cc1", "note": "[Compound 1]", "values": [{"measurement": "Effect on cAMP-induced type II PKA holoenzyme activation", "setting": "type II PKA holoenzyme", "value": "not to significantly alter"}, {"measurement": "Effect on cAMP-induced type I PKA holoenzyme activation", "setting": "type I PKA holoenzyme", "value": "not to significantly alter"}, {"measurement": "Inhibition of EPAC1-mediated Rap1-GDP exchange activity", "setting": "EPAC1 [1]", "value": "no inhibition; also recorded: not to inhibit"}, {"measurement": "Inhibition of EPAC2 GEF activity", "setting": "EPAC2 [2]", "value": "inhibit EPAC2 GEF activity to basal levels"}]}
{"compound": "Nc1ccc(Nc2ccc(N)cc2S(=O)(=O)O)cc1", "note": "[Compound 2]", "values": [{"measurement": "Selectivity EPAC2 vs EPAC1 of HTS hits", "setting": "EPAC1 [3]", "value": "not exclusively specific for EPAC2"}, {"measurement": "Relative Potency (RA)", "setting": "EPAC2 [4]", "value": 2.2}]}
{"compound": "Cc1cc(C)c(Nc2cc(Cl)ccc2Cl)c(C)c1", "note": "[Compound 14c, (2,5-Dichlorophenyl)-(2,4,6-trimethylphenyl)amine]", "values": [{"measurement": "fold more potent than cAMP", "setting": "EPAC2 [4]; 8-NBD-cAMP competition in binding EPAC2", "value": "about 100 fold"}, {"measurement": "Relative Potency (RA)", "setting": "EPAC2 [4]", "value": 100}, {"measurement": "Effect on cAMP-induced type II PKA holoenzyme activation", "setting": "type II PKA holoenzyme", "value": "not to significantly alter"}, {"measurement": "Effect on cAMP-induced type I PKA holoenzyme activation", "setting": "type I PKA holoenzyme", "value": "not to significantly alter"}, {"measurement": "Inhibition of EPAC1-mediated Rap1-GDP exchange activity", "setting": "EPAC1 [1]", "value": "no inhibition; also recorded: not to inhibit"}, {"measurement": "Inhibition of EPAC2 GEF activity", "setting": "EPAC2 [2]", "value": "inhibit EPAC2 GEF activity to basal levels"}]}
{"compound": "Cc1cc(C)c(S(=O)(=O)n2cc(C)cc2C)c(C)c1", "note": "[Compound 20i, 2,4-Dimethyl-1-(2,4,6-trimethylbenzenesulfonyl)-1H-pyrrole]", "values": [{"measurement": "Inhibition of 8-Br-cAMP-AM induced PKA activation (AKAR3 FRET)", "setting": "[5]", "value": "not inhibited; also recorded: did not affect PKA activation"}, {"measurement": "Effect on cAMP-induced type II PKA holoenzyme activation", "setting": "type II PKA holoenzyme", "value": "not to significantly alter"}, {"measurement": "Block of 007-AM induced decrease of FRET (EPAC1 activation)", "setting": "HEK293/EPAC1-FL", "value": "incapable of blocking; also recorded: not EPAC1 activation"}, {"measurement": "Effect on cAMP-induced type I PKA holoenzyme activation", "setting": "type I PKA holoenzyme", "value": "not to significantly alter"}, {"measurement": "Inhibition of EPAC1-mediated Rap1-GDP exchange activity", "setting": "EPAC1 [1]", "value": "no inhibition; also recorded: not to inhibit"}, {"measurement": "Block of 007-AM induced decrease of FRET (EPAC2 activation)", "setting": "HEK293/EPAC2-FL cells", "value": "fully blocked; also recorded: blocked EPAC2"}, {"measurement": "Inhibition of EPAC2 GEF activity", "setting": "EPAC2 [2]", "value": "inhibit EPAC2 GEF activity to basal levels"}]}
